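48-hour exposure; five concentrations; linearly interpolated endpoints. Abbreviation: GI50, concentration required for 50% inhibition of growth.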 Activity calls are given as the source filed them. No stated cut-off is given here; in the data, active = GI50 up to about 1.1 µM and inactive = higher.
Experiments:
Test in all cases: inhibition of tumour cell growth, NCI panel, 48 h
[1] = test system: KM-20L2
[2] = test system: U-251
[3] = test system: M19-MEL
[4] = test system: DMS-114
[5] = test system: UACC-257
[6] = test system: EKVX
[7] = test system: MOLT-4
[8] = test system: HOP-92
[9] = test system: A498
[10] = test system: SK-OV-3
[11] = test system: HCT-15
[12] = test system: COLO 205
[13] = test system: HT-29
[14] = test system: NCI-H522
[15] = test system: SK-MEL-28
[16] = test system: Malme-3M
[17] = test system: SF-268
[18] = test system: IGROV-1
[19] = test system: UACC-62
[20] = test system: TK-10
[21] = test system: NCI-H460
[22] = test system: RPMI-8226
[23] = test system: K562
[24] = test system: HCC 2998
[25] = test system: OVCAR-3
[26] = test system: LOX IMVI
[27] = test system: HL-60
[28] = test system: SK-MEL-2
[29] = test system: LXFL 529
[30] = test system: CAKI-1
[31] = test system: SW-620
[32] = test system: HOP-18
[33] = test system: HCT-116
[34] = test system: CCRF-CEM
[35] = test system: ACHN
[36] = test system: RXF 631
[37] = test system: SN12C
[38] = test system: DMS-273
[39] = test system: OVCAR-5
[40] = test system: NCI-H23
[41] = test system: SNB-78
[42] = test system: HOP-62
[43] = test system: SNB-75
[44] = test system: OVCAR-4
[45] = test system: SNB-19
[46] = test system: KM12
[47] = test system: SF-539
[48] = test system: SF-295
[49] = test system: NCI-H226
[50] = test system: A549
[51] = test system: OVCAR-8
[52] = test system: XF498
[53] = test system: SK-MEL-5
[54] = test system: UO-31
[55] = test system: 786-0
[56] = test system: DLD-1
[57] = test system: SR
[58] = test system: RXF 393
[59] = test system: M14

Structure (SMILES): CSC(C1c2ccccc2N(C)C2=NC(=O)N(C)C(=O)C21Cl)S(=O)(=O)c1ccc(C)cc1 (configuration not stated)
- GI50 [1]: > 100 µM (inactive)
- GI50 [2]: > 100 µM (inactive)
- GI50 [3]: 33.4 µM (inactive)
- GI50 [4]: 49.1 µM (inactive)
- GI50 [5]: 79.1 µM (inactive)
- GI50 [6]: 94.4 µM (inactive)
- GI50 [7]: 17.5 µM (inactive)
- GI50 [8]: 24.9 µM (inactive)
- GI50 [9]: > 100 µM (inactive)
- GI50 [10]: > 100 µM (inactive)
- GI50 [11]: 40.9 µM
- GI50 [12]: 40.2 µM (inactive)
- GI50 [13]: 34.1 µM (inactive)
- GI50 [14]: 15.7 µM (inactive)
- GI50 [15]: 25 µM (inactive)
- GI50 [16]: 40.3 µM (inactive)
- GI50 [17]: 29.3 µM (inactive)
- GI50 [18]: > 100 µM (inactive)
- GI50 [19]: 91.8 µM (inactive)
- GI50 [20]: > 100 µM (inactive)
- GI50 [21]: > 100 µM (inactive)
- GI50 [22]: 26.2 µM (inactive)
- GI50 [23]: 16.7 µM (inactive)
- GI50 [24]: > 100 µM (inactive)
- GI50 [25]: 18.9 µM (inactive)
- GI50 [26]: 45.8 µM (inactive)
- GI50 [27]: 14.2 µM (inactive)
- GI50 [28]: 33 µM (inactive)
- GI50 [29]: 22.2 µM (inactive)
- GI50 [30]: 24.9 µM (inactive)
- GI50 [31]: 26.6 µM (inactive)
- GI50 [32]: 83.2 µM (inactive)
- GI50 [33]: 31.8 µM (inactive)
- GI50 [34]: 9.04 µM (inactive)
- GI50 [35]: 50.6 µM (inactive)
- GI50 [36]: 39.6 µM (inactive)
- GI50 [37]: 50.4 µM (inactive)
- GI50 [38]: 27.3 µM (inactive)
- GI50 [39]: > 100 µM (inactive)
- GI50 [40]: 27 µM (inactive)
- GI50 [41]: 46.9 µM (inactive)
- GI50 [42]: > 100 µM (inactive)
- GI50 [43]: 24 µM (inactive)
- GI50 [44]: 61.2 µM (inactive)
- GI50 [45]: 64.3 µM (inactive)
- GI50 [46]: 60.5 µM (inactive)
- GI50 [47]: 42 µM (inactive)
- GI50 [48]: 33.6 µM (inactive)
- GI50 [49]: > 100 µM (inactive)
- GI50 [50]: > 100 µM (inactive)
- GI50 [51]: 21 µM (inactive)
- GI50 [52]: > 100 µM (inactive)
- GI50 [53]: 57.4 µM (inactive)
- GI50 [54]: 79.8 µM (inactive)
- GI50 [55]: 18.8 µM (inactive)
- GI50 [56]: 40.9 µM (inactive)

Structure (SMILES): Nc1nc(=O)[nH]c2c1cnn2Cc1ccccc1
- GI50 [1]: 1.62 µM (inactive)
- GI50 [2]: 1.4 µM (inactive)
- GI50 [4]: > 100 µM (inactive)
- GI50 [5]: > 100 µM (inactive)
- GI50 [6]: > 100 µM (inactive)
- GI50 [7]: > 100 µM (inactive)
- GI50 [8]: > 100 µM (inactive)
- GI50 [9]: > 100 µM (inactive)
- GI50 [11]: > 100 µM
- GI50 [12]: > 100 µM (inactive)
- GI50 [13]: > 100 µM (inactive)
- GI50 [15]: 1.88 µM (inactive)
- GI50 [16]: > 100 µM (inactive)
- GI50 [17]: > 100 µM (inactive)
- GI50 [18]: > 100 µM (inactive)
- GI50 [20]: 1.35 µM (inactive)
- GI50 [57]: > 100 µM (inactive)
- GI50 [21]: > 100 µM (inactive)
- GI50 [22]: > 100 µM (inactive)
- GI50 [23]: > 100 µM (inactive)
- GI50 [26]: > 100 µM (inactive)
- GI50 [27]: > 100 µM (inactive)
- GI50 [28]: > 100 µM (inactive)
- GI50 [29]: > 100 µM (inactive)
- GI50 [30]: > 100 µM (inactive)
- GI50 [31]: > 100 µM (inactive)
- GI50 [32]: > 100 µM (inactive)
- GI50 [33]: > 100 µM (inactive)
- GI50 [34]: > 100 µM (inactive)
- GI50 [35]: > 100 µM (inactive)
- GI50 [36]: > 100 µM (inactive)
- GI50 [37]: > 100 µM (inactive)
- GI50 [38]: > 100 µM (inactive)
- GI50 [39]: 1.47 µM (inactive)
- GI50 [40]: 1.56 µM (inactive)
- GI50 [41]: 1.46 µM (inactive)
- GI50 [43]: > 100 µM (inactive)
- GI50 [44]: > 100 µM (inactive)
- GI50 [58]: 1.4 µM (inactive)
- GI50 [45]: > 100 µM (inactive)
- GI50 [59]: > 100 µM (inactive)
- GI50 [46]: > 100 µM (inactive)
- GI50 [47]: > 100 µM (inactive)
- GI50 [48]: > 100 µM (inactive)
- GI50 [49]: 1.41 µM (inactive)
- GI50 [50]: > 100 µM (inactive)
- GI50 [51]: > 100 µM (inactive)
- GI50 [52]: > 100 µM (inactive)
- GI50 [53]: > 100 µM (inactive)
- GI50 [54]: > 100 µM (inactive)
- GI50 [56]: > 100 µM (inactive)

— ChEMBL document CHEMBL1201862, “PubChem BioAssay data set” (2004)
